Assay results as given in patent publication US7153866B1 (The United States of America as represented by the …, priority 1997, dated 2006).

What was measured:
C3H female mice = test: Lifetime incidence of cancer in normal C3H female mice given Tempol in drinking water; format: in vivo; settings: FIG. 2
Source text: Female C3H mice were supplied through the Frederick Cancer Research Center-Animal Production, Frederick, Md. […] All groups were allowed food and water ad libitum. All groups were followed for their entire life span. Animals were sacrificed at the first sign of a visible tumor nodule, gross enlargement of spleen, or marked difficulty in breathing. The presence of tumor was confirmed histologically.

neoplastic cell lines = settings: in vitro; Monti et al., PAACR 1995 and 1997; cited from earlier work

CC1(C)CC(O)CC(C)(C)N1[O] [Tempol, 4-hydroxy-2,2,6,6-tetramethylpiperidine-1-oxyl]
incidence of cancer (total number of tumors/group) compared to controls (C3H female mice; Tempol 58 mM in drinking water for entire life span): four-fold reduction
incidence of cancer (total number of tumors/group) compared to both control groups (C3H female mice; Tempol 58 mM in drinking water for one year): dramatically reduced the incidence of cancer
cytotoxicity against neoplastic cell lines (neoplastic cell lines): cytotoxic
